Laboratory results as given in patent EP2465928A1, “Treatment of Th17-mediated diseases” (Academisch Medisch Centrum bij de Universiteit van Amsterdam, priority 2010, dated 2012).

How the values were obtained:
Type in all cases: cell-based, human
Malt1 [1] = assay: NF-κB DNA binding in nuclear extracts of stimulated DCs (TransAM NF-κB family kit); conditions: curdlan-stimulated DCs; 75 µM z-VRPR-FMK, 2 h pre-incubation
Procedure: (§1) Cells, stimulation, inhibition and RNA interference. This study was performed in accordance with the ethical guidelines of the Academic Medical Center. Immature DCs (iDC, day 6 and 7) were generated as described previously. In short, human blood monocytes were isolated from buffy coats by a Ficoll and a Percoll gradient and or CD14 selection by magnetic beads. Monocytes were differentiated into immature DCs in the presence of IL-4 and GM-CSFAt day 6 the phenotype of the cultured DCs was confirmed by flow cytometric analysis. 100.000 DCs were stimulated with 10 µg/ml curdlan (Sigma), heat-killed Candida spp. (multiplicity of infection (MOI) 10) and 10 ng/ml LPS from Salmonella typhosa (Sigma) in 100-150 µl medium. Dectin-2 triggering was induced by pre-incubating DCs for 2 h at room temperature with 5 µg/ml anti-dectin-2 (MAB3114; R&D Systems), followed by cross-linking on goat-anti-mouse IgG (115-006-0710; Jackson)-coated culture plates. Cells were pre-incubated with blocking antibodies or inhibitor for 2 h with 20 µg/ml anti-dectin-1 (MAB1859; R&D Systems), 20 µg/ml anti-dectin-2 (MAB3114; R&D Systems) or 75 µM z-VRPR-FMK (Malt1 inhibitor [22]; Alexis). […]
NF-κB DNA binding. Nuclear extracts of DCs were prepared using NucBuster protein extraction kit (Novagen) and NF-κB DNA binding determined using TransAM NF-κB family kit (Active Motif).

Malt1 [2] = assay: Immunofluorescence staining of nuclear translocation of NF-κB subunits in DCs; conditions: curdlan-stimulated DCs; 75 µM z-VRPR-FMK; data not shown
Procedure: as §1

Malt1 [3] = assay: Quantitative real-time PCR for cytokine mRNAs in stimulated DCs; conditions: curdlan-stimulated DCs; 75 µM z-VRPR-FMK
Procedure: (§2) Cells, stimulation, inhibition and RNA interference. This study was performed in accordance with the ethical guidelines of the Academic Medical Center. Immature DCs (iDC, day 6 and 7) were generated as described previously. In short, human blood monocytes were isolated from buffy coats by a Ficoll and a Percoll gradient and or CD14 selection by magnetic beads. Monocytes were differentiated into immature DCs in the presence of IL-4 and GM-CSFAt day 6 the phenotype of the cultured DCs was confirmed by flow cytometric analysis. 100.000 DCs were stimulated with 10 µg/ml curdlan (Sigma), heat-killed Candida spp. (multiplicity of infection (MOI) 10) and 10 ng/ml LPS from Salmonella typhosa (Sigma) in 100-150 µl medium. Dectin-2 triggering was induced by pre-incubating DCs for 2 h at room temperature with 5 µg/ml anti-dectin-2 (MAB3114; R&D Systems), followed by cross-linking on goat-anti-mouse IgG (115-006-0710; Jackson)-coated culture plates. Cells were pre-incubated with blocking antibodies or inhibitor for 2 h with 20 µg/ml anti-dectin-1 (MAB1859; R&D Systems), 20 µg/ml anti-dectin-2 (MAB3114; R&D Systems) or 75 µM z-VRPR-FMK (Malt1 inhibitor [22]; Alexis). DCs were transfected with 25 nM siRNA (SEQ ID NO:5-8) using transfection reagens DF4 (Dharmacon), and used for experiments 72 h after transfection. 'SMARTpool' siRNAs used were: Syk (M-003176-03), CARD9 (M-004400-01), Bcl10 (M-004381-02), Malt1 (M-005936-02), c-Rel (M-004768-01) and non-targeting siRNA (D-001206-13) as a control (Dharmacon). […] PCR amplification was performed with the SYBR green method in an ABI 7900HT sequence detection system (Applied Biosystems).Silencing of expression was verified by real-time PCR and flow cytometry (not shown).
Quantitative real-time PCR. mRNA isolation, cDNA synthesis and PCR amplification with the SYBR green method in an ABI 7500 Fast PCR detection system (Applied Biosystems) were performed as described. Standard conditions according to manufacturer's instructions were used. Specific primers were designed using Primer Express 2.0 (Applied Biosystems; Supplementary Table 1). The Ct value is defined as the number of PCR cycles where the fluorescence signal exceeds the detection threshold value. For each sample, the normalized amount of target mRNA was calculated from the obtained Ct values for both target and GAPDH mRNA with Nt = 2^Ct(GAPDH)-Ct(target) The relative mRNA expression was obtained by setting Nt in curdlan-or LPS-stimulated samples at 1 within one experiment and for each donor.

Malt1 [4] = assay: Cytokine production by ELISA in supernatants of stimulated DCs; conditions: 75 µM z-VRPR-FMK
Procedure: as §2
Cytokine production. Cell culture supernatants were harvested after 28 h of stimulation and concentrations of IL-1β, IL-23, IL-6 (Invitrogen) and IL-12p70 (eBioscience) were determined by ELISA.

Malt1 [5] = assay: Th17 polarization assay (primed DCs co-cultured with memory CD4+ T cells); conditions: DCs pre-incubated with z-VRPR-FMK
Procedure: Th17 polarization assay. Memory CD4^+ T cells were isolated as described previously. Human PBMC were isolated from heparinized human peripheral blood by density gradient centrifugation on Lymphoprep (Nycomed), and PBMC were subsequently seperated in monocytes and PBL by density gradient centrifugation on Percoll (Pharmacia). Memory CD4^+ T cells were isolated with CD45R0^+-PE (Dakopatts) and anti-PE-beads (MACS). iDCs were preincubated for 2 h with inhibitors, activated for 16 h with curdlan or heat-killed Candida spp. and subsequently co-cultured with memory CD4^+ T cells as described (20,000 T cells/2000 DCs in the presence of 10 pg/ml Staphylococcus aureus enterotoxin B (Sigma). After 5 days of co-culture, supernatants were harvested and analyzed for IL-17 production by ELISA (Biosource). Cells were further cultured in the presence of 10 U/ml IL-2 (Chiron) and resting cells were restimulated after 12 days with 100 ng/ml PMA (Sigma) and 1 µg/ml ionomycin (Sigma) for 6 h, the last 5 h in the presence of 10 µg/ml brefeldin A (Sigma), and analyzed for intracellular cytokine expression by staining with biotinylated mouse anti-IL-17 (ebio64DE; eBioscience), followed by incubation with streptavidin-PE (BD Pharmingen) and FITC-conjugated mouse anti-IFN-γ (25723.11; BD).

[6] = more strongly than dectin-1 inhibition
[7] = DCs after C. albicans stimulation
[8] = DCs stimulated with C. albicans strain CBS8781 and CBS2712
[9] = DCs stimulated with C. lusitaniae and C. nivariensis

z-Valine-Arginine-Proline-DL-Arginine-FMK [z-VRPR-FMK]
activation of c-Rel (Malt1 [1]): completely abolished
activation of the other NF-κB subunits (Malt1 [1]): without affecting
nuclear translocation of c-Rel (Malt1 [2]): specifically interferes
IL-1β mRNA levels (Malt1 [3]): markedly reduced
IL-6 mRNA production (Malt1 [3]): slightly enhanced
IL-12p35 mRNA production (Malt1 [3]): slightly enhanced
IL-12p40 mRNA production (Malt1 [3]): neither dependent on Malt1 expression nor activation
IL-23p19 mRNA levels (Malt1 [3]): markedly reduced
C. albicans CBS2712-induced IL-1β expression (Malt1 [4]; [6]): decreased
C. albicans CBS2712-induced IL-23 expression (Malt1 [4]; [6]): decreased
IL-12p70 production (Malt1 [4]; [7]): unaffected
expression of IL-6 (Malt1 [4]; [7]): slightly upregulated
expression of IL-1β: requirement for Malt1 activation (Malt1 [4]; [8]): required
expression of IL-23: requirement for Malt1 activation (Malt1 [4]; [8]): required
IL-1β production (Malt1 [4]; [9]): largely dependent on Malt1 protease activity
IL-6 expression (Malt1 [4]; [9]): slightly enhanced
IL-12p70 (Malt1 [4]; [9]): unaffected
IL-23 production (Malt1 [4]; [9]): largely dependent on Malt1 protease activity
IL-1β protein expression (Malt1 [4]; curdlan-stimulated DCs, 28 h): severely reduced
IL-6 expression (Malt1 [4]; curdlan-stimulated DCs, 28 h): only slightly enhancing
IL-12p70 expression (Malt1 [4]; curdlan-stimulated DCs, 28 h): without affecting
IL-23 protein expression (Malt1 [4]; curdlan-stimulated DCs, 28 h): severely reduced
ability of DCs primed by the different Candida spp. to promote IL-17 expression in CD4+ T cells (Malt1 [5]; C. albicans CBS8781, CBS2712, C. lusitaniae, C. nivariensis, intracellular IL-17 day 12): completely blocked
capacity of curdlan-primed DCs to induce IL-17 expression in CD4+ T cells (Malt1 [5]; IL-17 ELISA day 5, intracellular IL-17 day 12): markedly reduced
